Measurements: EP0465913B1, “Diaminotrifluoromethylpyrimidine derivatives, process for their production and phospholipase A2 inhibitor containing them” (ISHIHARA SANGYO KAISHA, LTD., priority 1990, dated 1992)
Structures can show the parent of a compound that is named as a salt.

Key:
[1] = molecular target: T1, Porcine pancreatic phospholipase A2 (Sus scrofa, UniProt P00592); assay: Phospholipase A2 inhibitory activity, method B (L-α-dipalmitoylphosphatidylcholine substrate); format: biochemical; conditions: 37°C for 30 minutes; for inhibition at 1000 ppm: 1,000 ppm, read-out: % inhibition of PLA2 (1,000 ppm)
T1 construct: purchased Boehringer Mannheim·Yamanouchi K.K. 161454·122416
Method in brief: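 Substrate: L-α-dipalmitoylphosphatidylcholine/sodium cholate mixed micelles in 250 mM NaCl, 100 mM Tris-HCl pH 8.0. Enzyme (10 µg/ml stock) incubated with compound in buffer containing CaCl2 and BSA, 30 min at 37 °C. Released free fatty acid measured by ACS-ACOD at 540 nm; % inhibition derived from apparent enzyme concentration read off a standard curve.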

[2] = Acute toxicity, intravenous injection (LD50); format: in vivo; conditions: mouse, in vivo, iv, ddy male mice, sodium salt, mortality over one week
Protocol: Administration route: Intravenous injection
Using ddy male mice (body weight: 25 - 30 g), each test group consisted of 5 mice. A test compound was dissolved in the form of a sodium salt in a physiological saline or in a 5% glucose aqueous solution, and intravenously injected in an amount of 0.1 ml/10 g body weight. After the injection, the mortality rate was obtained over one week, and the median lethal dose LD50 (mg/kg) was determined.

carrageenin edema = assay: Inhibitory activity on carrageenin edema; format: in vivo, Wistar male rats; conditions: rat, paw swelling volume three hours after carrageenin; for inhibition in vivo at 100 mg/kg: po, 3 h, dose 100 mg/kg orally, read-out: Inhibition rate (%); for Inhibition rate (%): dose 50 mg/kg orally
Method in brief: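 Male Wistar rats (about 100 g, 5 per group) dosed orally at 200, 100, 50 or 25 mg/kg as 2% Tween 80 suspension or aqueous salt solution, 1 h before subplantar injection of 0.1 ml 1% λ-carrageenin. Paw swelling measured at 3 h; % inhibition versus control group mean swelling.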

[3] = test system: increased vascular permeability induced by acetic acid; assay: Inhibitory activity on increased vascular permeability induced by acetic acid (Mouse Whittle method, method C); format: in vivo, ddy male mice; conditions: amount of leaked dye
Method in brief: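 ddy male mice (4-5 per group) dosed orally with compound in 2% Tween 80 suspension or aqueous salt solution. Dye measured at 600 nm; inhibition % calculated versus vehicle control leakage.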

T1 sequence (P00592 23-146): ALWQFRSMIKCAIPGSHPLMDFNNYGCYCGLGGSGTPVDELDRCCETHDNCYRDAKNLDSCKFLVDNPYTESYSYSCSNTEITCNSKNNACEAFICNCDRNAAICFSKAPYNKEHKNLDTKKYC

SMILES	inhibition at 1000 ppm [1]	LD50 at 168 h [2]	inhibition in vivo at 100 mg/kg (carrageenin edema)	Inhibition rate (%) ([3]; dose 10 mg/kg orally)	Inhibition rate (%) (carrageenin edema; 50 mg/kg)	% inhibition of PLA2 (1,000 ppm) [1]	Inhibition rate (%) ([3]; dose 20 mg/kg orally, 20 mg/kg)	Inhibition rate (%) ([3]; dose 100 mg/kg orally)	Inhibition rate (%) (carrageenin edema)	Inhibition rate (%) ([3]; dose 20 mg/kg orally)
CS(=O)(=O)Nc1ncc(C(F)(F)F)cc1NC(=O)c1ccc(F)cc1 [Compound No. 10, N-(2-methylsulfonylamino-5-trifluoromethyl-3-pyridyl)-4-fluorobenzamide]	51%	50 to 100 mg/kg	28%	42%	–	–	–	–	–	–
CCS(=O)(=O)Nc1ncc(C(F)(F)F)cc1NC(=O)C1CCCCC1 [Compound No. 47, N-(2-ethylsulfonylamino-5-trifluoromethyl-3-pyridyl)cyclohexanecarboxamide]	90%	58 mg/kg	–	46%	41%	–	–	–	–	–
CCS(=O)(=O)Nc1ncc(C(F)(F)F)cc1NC(=O)C1CCCCC1 [Compound No. 251, sodium salt of N-(2-ethylsulfonylamino-5-trifluoromethyl-3-pyridyl)cyclohexanecarboxamide]	–	–	–	–	30%	85%	43%	–	–	–
CS(=O)(=O)Nc1ncc(C(F)(F)F)cc1NC(=O)C(F)(F)C(F)(F)F [compound 13]	51%	> 70 mg/kg	21%	–	–	–	–	57%	–	–
CS(=O)(=O)Nc1ncc(C(F)(F)F)cc1NC(=O)c1ccccc1 [compound 43]	49%	78 mg/kg	–	–	–	–	–	–	31%	48%
CS(=O)(=O)Nc1ncc(C(F)(F)F)cc1NC(=O)C1CCCC1 [compound 45]	41%	98 mg/kg	–	–	–	–	–	–	23%	29%
Cc1cccc(C(=O)Nc2cc(C(F)(F)F)cnc2NS(C)(=O)=O)c1 [compound 78]	51%	> 60 mg/kg	–	32%	–	–	–	–	26%	–
CS(=O)(=O)Nc1ncc(C(F)(F)F)cc1NC(=O)c1cccc(Cl)c1 [compound 79]	65%	–	–	–	–	–	–	–	20%	67%
CS(=O)(=O)Nc1ncc(C(F)(F)F)cc1NC(=O)c1cc2ccccc2s1 [compound 86]	93%	> 40 mg/kg	–	–	–	–	–	–	27%	42%
CS(=O)(=O)Nc1ncc(C(F)(F)F)cc1NC(=O)c1ccc2c(c1)CCC2 [compound 87]	88%	75 mg/kg	–	28%	–	–	–	–	21%	–
C/C=C/C(=O)Nc1cc(C(F)(F)F)cnc1NS(=O)(=O)CC [compound 93, N-(2-ethylsulfonylamino-5-trifluoromethyl-3-pyridyl)crotonamide]	48%	–	–	40%	–	–	–	–	22%	–
CCS(=O)(=O)Nc1ncc(C(F)(F)F)cc1NC(=O)C1CCCC1 [compound 94]	63%	–	–	–	–	–	–	–	23%	53%
